According to paper PMC6290777, “Inhalation of the prodrug PI3K inhibitor CL27c improves lung function in asthma and fibrosis” (Nature Communications, 2018):

How the values were obtained:
PBMCs = PBMCs proliferation (MTT); format: cell-based, human
Procedure: PBMCs in RPMI medium were seeded in a 96-well tissue culture plates at 5 × 10^3 cells/well (Cell Star, Frickenhausen, Germany). PBMCs were activated with vehicle (PBS) or anti-CD3 (5 μg/mL) plus soluble anti-CD28 (2 μg/mL) mAbs (BD Pharmingen, San Jose, CA, USA). Then, the cells were incubated at 37 °C and 5% CO2 for 48 h. Cell proliferation was assayed by MTT (3-(4,5-dimethylthiazol-2-yl)-2,5-diphenyltetrazolium bromide) assay (Roche Life Science, Mannheim, BW, Germany) following the manufacturer’s instructions. Briefly, 10 μL of MTT (3 mg/mL) was added to each well containing cells in 100 μL medium and incubated for 2 h at 37 °C. Then, 100 μL of lysis buffer was added allowing the dissolution of formazan crystals. After 15 min at room temperature the absorbance was read at 560 nm with reference of 690 nm using GloMax®-Multi Microplate Multimode Reader (Promega, Madison, Wisconsin, EUA).

[1] = Microsomial stability, rat; format: in vitro ADME; conditions: rat liver microsomes, NADPH
Procedure: To define whether this prodrug was suitable for inhaled administration, CL27c was studied to evaluate selected ADME (absorption, distribution, metabolism, and excretion) and pharmacokinetic properties. First, stability of CL27c and CL27e was analyzed in mouse plasma (Supplementary Table 1) and in mouse, rat, and human liver microsomes in the presence of nicotinamide adenine dinucleotide phosphate (NADPH; Supplementary Table 2). Next, clearance of CL27c was analyzed in C57BL/6J mice after either intra-venous or oral administration. […] Clearance of CL27c and CL27e after oral administration could not be determined due to their low bioavailability (Supplementary Table 3). Next, pharmacokinetics after inhalation was studied in C57BL/6J mice after delivering an aerosolized micro-suspension of CL27c. As shown in Table 1 and Supplementary Fig. 1b, CL27c dose-dependently reached the lungs and its metabolite CL27e was detectable after inhalation of the highest dose. […] Therefore, the inhaled prodrug promotes local effects but prevents systemic absorption of pharmacologically relevant amounts of the active compound. […]
All tests for the microsomial stability of CL27c were conducted by the Istituto di Ricerche Biomediche (RBM) SpA – Merck Serono, Ivrea, Italy. […]
Then, cells […]
pretreated with different doses of CL27c were incubated at 37°C and 5% CO 2 for 10 minutes. […]

[2] = system: bleomycin-induced lung fibrosis; assay: Bleomycin-induced lung injury and fibrosis in mice; format: in vivo, C57BL/6J mice
Procedure: Eight-to-ten-week-old C57BL/6J males were used in bleomycin-induced lung injury and fibrosis model[10],[51]. Briefly, a single 40 µl injection containing 3.75 or 2 mg/kg of bleomycin sulfate (Sigma Aldrich-MERCK #B1141000) diluted in PBS or PBS only (vehicle) was instilled intratracheally. […]
Levels of hydroxyproline in lung tissues were measured using the Hydroxyproline Assay kit (Sigma-Audrich, St. Louis, MO, USA) according to the manufacturer’s instructions. Briefly, 10 mg of pulverized frozen lungs homogenized in 100 µL of concentrated hydrochloric acid (HCl, 12 M), and hydrolyzed at 120 °C for 3 h. Then, 5 µL of each sample in triplicate were used to the assay. […] The absorbance was obtained at 560 nm. The final results are expressed as concentration of hydroxyproline in µg/mL.
The left lung was removed and fixed in 4% neutral phosphate-buffered formalin (pH 7.4)[10]. The tissues were dehydrated gradually in ethanol, embedded in paraffin, cut into 4 µm sections, stained with H&E, Gomori’s trichrome and periodic acid schiff (PAS), and examined under light microscopy by a pathologist in a double blinded manner. Images of lung sections were captured with a digital camera (Optronics DEI-470) connected to a microscope (Olympus IX70) with a magnification of ×40 or ×100. Inflammation was scored according to modification of existing protocols[53] and to the histopathology criteria reported in Supplementary Table 4. […]
For quantitative measurements, total RNA was extracted from lung tissues using the High Pure RNA isolation kit (Invitrogen, Life Technologies, Paisley, UK) and reverse-transcribed with the Superscript first-strand synthesis system kit (Invitrogen, Life Technologies, Paisley, UK). Specific mRNA sequences were quantified by real-time PCR with primer/probe combinations based on the Roche Universal ProbeLibrary Set, Mouse (Tgfb1 probe: #72, Ctgf probe: #71, Col1a1 probe: #15 and Mmp2 probe #49). Primer sequences are listed in Supplementary Table 5.

[3] = late treatment, day 17 to day 27
[4] = moderate model, bleomycin 2 mg/kg, aerosolized CL27c 2 mg/ml
[5] = moderate model, therapeutic aerosolized CL27c
[6] = severe model, bleomycin 3.75 mg/kg

COC(=O)c1cccc(Cn2cc(-c3cccc4c(=O)cc(N5CCOCC5)[nH]c34)nn2)c1 [CL27c]
anti-proliferative effect on PBMC relative to dexamethasone (PBMCs; CL27c 5 μM): comparable to the reference compound dexamethasone
proliferation of PBMC (PBMCs; stimulated with antibodies against CD28, CL27c 0.5 and 5 µM, concentration-dependent): block proliferation
Clint (intrinsic clearance) [1]: 0.2 ± 0.005 ml/min/mg prot
t1/2 [1]: 5.9 ± 0.1 min
Akt phosphorylation in lung protein extracts and sections ([2]; bleomycin model): blunted the increase of Akt phosphorylation
lung function [2, 3]: improved lung function
mortality [2, 3]: significantly blunts mortality
fibrotic collagen deposition ([2]; late treatment, day 17 to day 27 after bleomycin 2 mg/kg): still effective in reducing fibrotic collagen deposition
lung elasticity (pulmonary compliance) restored, relative to controls ([2]; moderate model): 75 % of controls
lung resistance ([2]; moderate model): reduce the gain in lung resistance almost to the level of healthy mice
survival ([2]; moderate model, 22 days after instillation, bleomycin alone 50% mortality): 100%
fibrotic remodeling (Ashcroft score, collagen content) ([2]; moderate model, bleomycin 2 mg/kg): significantly reduce fibrotic remodeling
abundance of active TGF-β1 [2, 4]: significantly decreased the abundance of active TGF-β1
mRNA levels of Tgfb1, Ctgf, Col1a1, Mmp2 [2, 4]: attenuated mRNA levels of Tgfb1
neutrophil-derived MPO levels in the lungs [2, 4]: markedly reduced
airway inflammation (BALF cells) ([2]; moderate model, bleomycin 2 mg/kg, aerosolized CL27c 2 mg/ml day 10 to 21): markedly reduced airway inflammation
histopathological inflammation score ([2]; moderate model, day 22): significantly attenuated in airways, vasculature, and parenchyma
TLC, inspiratory capacity, forced vital capacity, and FEV [2, 5]: significant recovery back to normal levels
pressure–volume curve [2, 5]: significantly improved the pressure–volume curve
hydroxyproline deposition in lungs [2, 6]: significantly decreased hydroxyproline deposition in lungs
infiltration of macrophages and neutrophils [2, 6]: reduced infiltration of either macrophages or neutrophils
mortality within 21 days ([2]; severe model, bleomycin 3.75 mg/kg, CL27c could not protect): 100%
